Reference: US8008346B2, “Chemotherapeutic agents for inhibition of protein translation” (The Royal University for the Advancement of Learning/McGill …, priority 2006, dated 2011)

What was measured:
eIF4AIf = target: T1, eIF4AIf (Mus musculus, UniProt P60843); assay: Crosslinking of oxidized 32P-cap labeled CAT mRNA to recombinant eIF4AIf (RNA binding); design: species or system murine; conditions: 50 μM
T1 construct: inferred only from the Ni-NTA purification; made in house; host or cells: Escherichia coli BL21 (DE3) codon+
Procedure: FIG. 7. Effects of hippuristanol on ATP hydrolysis, ATP binding, and RNA binding activities of eIF4A. A. Hippuristanol inhibits eIF4AIf RNA-dependent ATPase activity. The rate of ATP hydrolysis as a function of hippuristanol concentration is plotted relative to the rate obtained in the presence of vehicle (0.5% DMSO). ATP hydrolysis was measured in the presence of 2.5 μM poly (U) and monitored by thin layer chromatography. […] Samples were resolved by SDS-PAGE and subjected to autoradiography. C. The RNA binding activity of eIF4AIf is inhibited by hippuristanol. Oxidized ^32P-cap labeled CAT mRNA was incubated with recombinant eIF4AIf in the absence (lane 2) or presence of ATP (lanes 1, 3-6), 0.6 mM m^7GDP (lane 3), 0.6 mM GDP (lane 4), or 50 μM hippuristanol (lane 6). Following treatment with RNase A, samples were resolved by SDS-PAGE and subjected to autoradiography. The asterisk denotes the position of migration of a ˜30 kDa contaminant in the recombinant eIF4AIf preparation used as an internal loading reference. D. The RNA binding activity of eIF4Ac is inhibited by hippuristanol. Oxidized ^32P-cap labeled CAT mRNA was incubated with 0.7 μg of native eIF4F in the absence (lane 1) or presence (lane 2) of 50 μM hippuristanol. […]
Ribosome Binding and mRNA Crosslinking. […] Fractions of 500 μl were collected and radioactivity was determined by scintillation counting. […]

HeLa cells = assay: 35S-methionine incorporation (protein synthesis) in HeLa cells; format: cell-based
Procedure: FIG. 4. Effect of hippuristanol on protein, RNA and DNA synthesis in cells. A. Relative rate of ^35S-methionine incorporation as a function of hippuristanol concentration in HeLa cells. Cells were exposed to the indicated concentration of compound for 50 min., followed by a 10 min. labeling period with ^35S-methionine in the presence of compound. The rate of protein synthesis (TCA precipitable cpm) obtained in the presence of compound was normalized to the rate obtained in the presence of DMSO (which was set at 1). The rate of protein synthesis in the control reactions (containing DMSO vehicle) averaged ˜700,000 cpm/10 min. labeling period. Results are shown for two experiments and the error of the mean is presented. The relative rate of ^35S-methionine incorporation in HeLa cells exposed to 10 μM anisomycin (positive control) for 60 min. was ˜0.02 (data not shown). B. Effect of hippuristanol on protein (gray circles), DNA (open squares), and RNA (solid squares) synthesis in HeLa cells. The rate of macromolecular synthesis (TCA precipitable cpm for a 10 min. labeling period) obtained in the presence of 1 μM hippuristanol was normalized to the rate obtained in the presence of DMSO and is plotted. The results are shown for two experiments and the error of the mean is presented. The rate of protein, RNA and DNA synthesis in the control reactions (containing DMSO vehicle) averaged ˜900,000 cpm/10 min, ˜16,000 cpm/10 min. and 7,000 cpm/10 min labeling, respectively. The relative rate of ^35S-methionine incorporation by HeLa cells exposed to 10 μM anisomycin for 60 min. (positive control for inhibition of protein synthesis) was 0.02 (data not shown). The relative rate of ^3H-uridine incorporation by HeLa cells exposed to 50 μM actinomycin (positive control for inhibition of RNA synthesis) for 60 min. was 0.01 (data not shown). C. […] Gradients were analyzed by piercing the tube with a Brandel tube piercer, passing 60% sucrose through the bottom of the tube, and monitoring the absorbance of the material eluting from the tube using an ISCO UA-6 UV Detector.

T1 sequence (P60843 whole entry): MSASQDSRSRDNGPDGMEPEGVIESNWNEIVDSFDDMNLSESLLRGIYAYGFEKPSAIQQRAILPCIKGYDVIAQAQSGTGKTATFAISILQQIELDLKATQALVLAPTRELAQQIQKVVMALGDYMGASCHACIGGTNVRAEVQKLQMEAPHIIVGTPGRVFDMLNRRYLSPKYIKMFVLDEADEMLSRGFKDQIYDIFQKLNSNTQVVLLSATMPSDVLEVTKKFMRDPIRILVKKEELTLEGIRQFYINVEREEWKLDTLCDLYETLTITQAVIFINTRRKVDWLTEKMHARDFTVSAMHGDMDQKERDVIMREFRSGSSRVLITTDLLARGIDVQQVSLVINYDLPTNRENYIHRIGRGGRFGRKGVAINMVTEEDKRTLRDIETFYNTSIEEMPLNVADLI

**Q.** With `C[C@H]1C[C@@]2(O[C@H]3C[C@H]4[C@@H]5CC[C@H]6C[C@H](O)CC[C@]6(C)[C@H]5[C@@H](O)C[C@]4(C)[C@H]3[C@@]2(C)O)OC1(C)C` [Hippuristanol, hippuristanol] as the compound, how does the “RNA binding activity of eIF4AIf” value (eIF4AIf) read?
**A.** inhibited

**Q.** What about the “eukaryotic protein synthesis (35S-methionine incorporation)” value (HeLa cells; FIG. 4) of the same compound?
**A.** inhibits

**Q.** And the “reversibility of the inhibitory effect on protein synthesis” value (HeLa cells; HeLa cells, 1 μM for 60 min, then compound washed off)?
**A.** reversible
